Entries after “also recorded” stand apart in the source; their conditions may differ.
Assays:
[1] = Phase 1 study: Compound 1 levels in CSF compared with plasma; format: in vivo, human
Excerpt: The concentrations of Compound 1 in plasma and CSF were to be assessed in an open-label design in healthy male and female subjects. A single dose of Compound 1 was to be administered daily for 7 days in 1 cohort of 6 subjects (Cohort 3.1) The dose level of Part 3 was to be determined based upon a review of the safety, tolerability, and PK data of Part 1 and Part 2 of the study. While the MAD dose was to be determined further in development, that dose and schedule was to be applied to this part of the study.
Eligibility was to be assessed during a screening period of up to 28 days. Subjects were to check into the clinic 1 day before dosing (Day −1). On the morning of Day 1 to Day 7, Compound 1 was to be orally administered after an overnight fast of at least 10 hours each day. Serial sampling of CSF and sampling of plasma for drug concentrations was to be performed on Day 7 The exact timing of the CSF and blood samples was to be determined based on the results of Part 1 and Part 2. Subjects were to be released from the clinic on Day 9 after all required study procedures are completed and if medically appropriate. A follow-up safety phone call was to occur 4 weeks (±1 week) after discharge on Day 9.
The CSF sampling enabled the evaluation of pharmacokinetics of Compound 1 in the CSF wherein Compound 1 levels in the CSF were compared with Compound 1 levels in plasma. […] The food effect portion enabled the evaluation of pharmacokinetics of Compound 1 in plasma after administration of a single dose of Compound 1 in healthy subjects.

[2] = Compound 1 in CSF and free plasma of non human primates; format: in vivo
Procedure: The two subjects in this cohort received 30 mg daily dose.

HTT mRNA = assay: Phase 1 study: HTT mRNA in whole blood of healthy volunteers (RT-PCR); format: in vivo, human
Excerpt: (i) To explore the effect of single dose of Compound 1 administered on huntingtin (HTT) premRNA splicing in the blood of healthy subjects; (i) To explore the effect of Compound 1 administered for 14 or up to 21 days on HTT pre-m RNA splicing and HTT protein levels in the blood of healthy subjects; (ii) To explore the effect of single dose of Compound 1 administered (with food) on HTT pre-mRNA splicing in the blood of healthy subjects; and, (iii) To explore the effect of Compound 1 administered for up to 28 days on HTT premRNA splicing and HTT protein levels in the blood of healthy subjects.
The single ascending dose (SAD) part of the study was randomized, double-blinded, and placebo controlled in healthy male and female subjects.
The multiple ascending (MAD) part of the study was randomized, double-blind, and placebo controlled in healthy male and female subjects. Up to five regimens are planned to be tested in up to 5 cohorts of 8 subjects each (Cohort 2.1 to 2.5). Within each cohort, 6 subjects were to receive Compound 1 and 2 subjects were to receive placebo. Subjects in Cohort 2.1 and 2.2 were to be dosed for 14 days, subjects in Cohort 2.3 to 2.5 were to be dosed for up to 21 days.
The amount of HTT mRNA was then evaluated by RT-PCR 6 hours after administration of Compound 1 on day 14.
Results from measurement of HTT RNA in the whole blood of human subject administered a placebo or 15 or 30 mg of Compound 1, as described in the Multiple Ascending Dose (MAD) study above are illustrated in FIG. 15. HTT splicing was monitored after the final dose at day 14, calculated as % HTT remaining from baseline (pre-dose day 0).

human HTT = assay: Transgenic mouse models of Huntington's disease; format: in vivo
Excerpt: An international application published as WO2020/005873 identified a genus of compounds that can be used in the treatment of HD, methods of making the same and pharmaceutical formulations of the same. […] At present, only symptomatic treatments are available. Thus, to date, there is no small molecule therapy available to slow the progression of HD. Accordingly, there is a need for small molecule disease-modifying therapies for HD (i.e. therapeutic options that can slow disease progression).
At the selected doses of 10 mg QD and 20 mg QD, the predicted percent full-length HTT mRNA decreases are within the target range of 30 to 50% reduction from baseline. […] Therefore, the observed preclinical HTT mRNA changes are anticipated to result in similar decreases in HTT protein levels in HD patients. Thus, based upon the totality of the clinical and preclinical safety data to date, and the anticipated reduction in HTT mRNA and protein derived from clinical data and pharmacokinetic-pharmacodynamic modeling, the doses of 10 mg and 20 mg are expected to be safe, well tolerated, and beneficial to subjects with HD.

[3] = Phase 1 study: safety and tolerability in healthy subjects; format: in vivo, human
Procedure: Phase 1 Dose Escalation Study was initiated to assess the safety and pharmacokinetics of Compound 1 Oral Tablets (5 mg and 50 mg) compared to placebo in healthy subjects.
(i) To characterize the safety and tolerability of single ascending doses of Compound 1 in healthy subjects; (ii) To characterize the safety and tolerability of Compound 1 administered for 14 or up to 21 days in healthy subjects; (iii) To characterize the pharmacokinetics in plasma and cerebrospinal fluid (CSF) after administration of Compound 1 for 7 days in healthy subjects; (iv) To characterize the food effect on the pharmacokinetics (PK) in plasma of Compound 1 after administration of a single dose of Compound 1 in healthy subjects; and, (v) To characterize the safety and tolerability of Compound 1 administered for up to 28 days in healthy subjects.
The study was monitored by a Safety Review Committee (SRC). […] Safety and tolerability was assessed by the SRC between each cohort prior to ascending from one dose level to the next higher dose level in Part 1 (single ascending dose [SAD]) and fart 2 (multiple ascending dose [MAD]), and prior to initiating Part 3 (CSF), Part 4 (FE), and Part 5.
The following parameters were defined as parameters regarding safety and tolerability: […]
Change from baseline to each scheduled time point up to EOS for vital signs; Change from baseline to each scheduled time point up to EOS for ECG parameters; Change from baseline to each scheduled time point up to EOS for clinical laboratory tests; Changes from baseline in C-SSRS scores (Part 2, Part 3, and Part 5 only); Treatment-emergent adverse events (AEs) up to EOS; Treatment-emergent AEs leading to premature discontinuation of study drug; Treatment-emergent serious adverse events (SAEs) up to FOS; and, Abnormalities in physical examination.

Rat toxicology (NOAEL) = format: in vivo; details: male rats
Procedure: The initial dose in the first cohort was ≥ 1/10 of the human equivalent dose (HED) estimated from the NOAEL (no observed adverse effect level) of the (male) rat, which is the most sensitive species, following the FDA guidance on the maximum recommended starting dose (MRSD) and EMA guidelines. The NOAEL of the rat is 6 mg/kg. […] The HED of 0.97 mg/kg was calculated; this scaled in a 70 kg human to 68 mg. Adjusting this dose to 1/10, the dose of the first cohort was 6.8; the actual administered dose will be 5 mg.

CC1(C)CC(n2nnc3cc(-c4ccc(-n5nccn5)cc4O)nnc32)CC(C)(C)N1 [Compound 1, 2-[3-(2,2,6,6-tetramethylpiperidin-4-yl)-3H-[1,2,3]triazolo[4,5-c]pyridazin-6-yl]-5-(2H-1,2,3-triazol-2-yl)phenol]
Compound 1 levels in the CSF compared with plasma ([1]; healthy subjects, 30 mg daily dose): equal to or greater than levels observed in plasma; also recorded: at least equivalent or greater than levels observed in the plasma
blood brain barrier penetration ([1]; humans): crossed the blood brain barrier
efflux ([1]; humans): not subject to efflux
blood brain barrier penetration [2]: crosses the Blood Brain Barrier
lowering of HTT mRNA in whole blood (HTT mRNA; MAD cohort, 15 mg or 30 mg for 14 days, 6 hours after dose on day 14): dose-dependent lowering
time of treatment until HTT mRNA levels reached steady state (HTT mRNA; Multiple Ascending Dose Study): 4 to 5 days
lowering of HTT mRNA in whole blood (HTT mRNA; SAD cohort, 24 hours after single dose of 5, 15, 45, 90 or 135 mg): dose-dependent lowering
relation of HTT pre-mRNA splicing to protein lowering (human HTT; bacterial artificial chromosome transgenic mouse model of HD): strong correlation between levels of HTT pre-mRNA splicing and the degree of protein lowering
reduction of human HTT production in vivo (human HTT; transgenic mouse models of Huntington's disease, results not yet published): effective in reducing human HTT production in vivo
overall incidence of AEs ([3]; SAD and MAD portions, versus placebo): comparable between subjects who received placebo and those who received Compound 1
laboratory abnormalities or ECG findings ([3]; any dose, SAD and MAD portions): no clinically significant laboratory abnormalities or electrocardiogram (ECG) findings
safety and tolerability ([3]; healthy subjects, single doses 5 mg to 135 mg, multiple doses 15 mg and 30 mg up to 21 days): well-tolerated with no safety-related findings; also recorded: safe and generally well tolerated
observation that set the NOAEL (Rat toxicology (NOAEL)): germ cell exfoliation in epididymis and testes

Reference: patent publication US20230405000A1, “TABLET FOR USE IN TREATING HUNTINGTON'S DISEASE AND METHOD OF MAKING THE SAME” (PTC THERAPEUTICS, INC., priority 2020, published 2023)
